Data taken from US20180055020A1, “Mice With Transgene Of iBox Peptide Inhibitor Of Group B p21-Activated Kinases” (Institute For Cancer Research d/b/a The Research Institute …, priority 2016, published 2018).

Tests used:
Assay type in all cases: cell-based, mouse
[1] = tested on: each of the tissues studied; assay: Cell proliferation on expression of the iBox transgene (preliminary experiments)
Method: Cells were plated at 2×10^3 in 96-well plates and 10 μl of 3-[4,5-dimethylthiazol-2-yl]-2,5-diphenyl tetrazolium bromide (MTT) solution was added to each well to a final concentration of 0.5 mg/ml. The reaction was stopped after 4 hours at 37° C. by adding 100 μl of solubilization solution (10% SDS in 0.01M HCl) and the samples were analyzed at 595 nm on Perkin Elmer Envision plate reader. Triplicates were performed for each sample, and experiments were performed on three occasions. […] An anti-Gst blot is shown.

Erk = assay: Immunoblot of lysates of ROSA26-iBox MEFs for signaling molecules (Erk and P-Erk); conditions: lysates of MEFs expressing iBox (Adeno-Cre), FIG. 5D
Method: (§1) Primary mouse embryo fibroblasts were established from E14 embryos from pregnant ROSA26-iBox mice. Cell lines were maintained in DMEM medium supplemented with 10% of FBS, 2 mM L-glutamine and 100 Um′ penicillin/streptomycin ay 37° C. in a humidified 5% CO2 incubator. To document iBox and EGFP expression, the MEFs were transduced with Adeno-Cre which removes the LSL cassette. MEFs were imaged to documents EGFP expression and lysates were probed by immunoblot to document iBox expression using anti-GST antibodies that recognize the GST protein that is fused to the N-terminus of iBox. These lysates were also probed with antibodies against Erk and P-Erk, Src and P-Src, Fak and P-Fak, as well as GAPDH.
(§2) To analyze endogenous Pak4 activity, Pak4 was immunoprecipitated from ROSA26-iBox MEFs and Protein-A-Pak4 beads were incubated with recombinant Pacsin or CRTC1 for 10 minutes at 30° C. in a buffer containing 50 mM Tris-HCl, pH 7.5, 10 mM MgCl2, 1 mM DTT, and 50 μM ATP. Reactions were terminated with hot 6×SDS/PAGE buffer and the samples were analyzed by immunoblot using anti-P-pacsin or anti-P-CRTC1 antibodies. […] Inhibition of Erk, Src, and Fak was observed.

Src = assay: Immunoblot of lysates of ROSA26-iBox MEFs for signaling molecules (Src and P-Src); conditions: lysates of MEFs expressing iBox (Adeno-Cre), FIG. 5D
Method: as §1, §2

Fak = assay: Immunoblot of lysates of ROSA26-iBox MEFs for signaling molecules (Fak and P-Fak); conditions: lysates of MEFs expressing iBox (Adeno-Cre), FIG. 5D
Method: as §1, §2

“iBox: Peptide inhibitor of Group B Paks, derived from amino acids 166 to 203 of human INKA-1, linked to GST, expressed from a transgene (GLEAEDWTAALLNRGRSRQPLVLGDNCFADLVHNWMEL; GST fusion; UniProt Q96EL1 166-203, looked up, fragment)” was tested, and the “effect of iBox transgene expression on cell proliferation” value [1] was “inhibited cell proliferation”, the “effect on Erk signaling (immunoblot)” value (Erk) was “Inhibition” and the “effect on Src signaling (immunoblot)” value (Src) was “Inhibition”. For the same substance, the “effect on Fak signaling (immunoblot)” value (Fak) was “Inhibition”.
